Reference: PMC6418145 (Scientific Reports, 2019)

Experiments:
[1] = Pharmacokinetics in plasma, CSF and cortical brain tissue after i.p. injection
Method: (§1) Blood (approximately 100 µl) was collected from the vena facialis in anaesthetised animals, followed by CSF sampling (approximately 10 µl) from the cisterna magna under pentobarbital anaesthesia (1:25 in saline, 10 ml/kg, i.p., Narcoren, Boehringer Ingelheim, Germany). Subsequently, the brain was removed and its anterior third (including the medial prefrontal and anterior cingulate cortices) dissected and transferred into Precellys tubes cooled in liquid nitrogen. For plasma extraction, blood was transferred to EDTA coated tubes and centrifuged for 10 min at 10,000 rpm at 4 °C. Maximal plasma concentration (Cmax), time taken to reach maximal plasma concentration (Tmax) and mean residence time were assessed using liquid chromatography–mass spectrometry analysis executed on the HP1200 (Agilent, CA, USA) coupled to the API 6500 (AB Sciex, Germany) using BI00001052 (Boehringer Ingelheim) as internal standard. In short, 5 µl of plasma or CSF sample were mixed with 10 nl internal standard. 70 µl acetonitrile (ACN)/methanol (1:1) was added, kept at −20 °C for 15 min and centrifuged for 4 min at 4000 rpm at 4 °C. 30 µl of the supernatant was mixed with 170 µl 0.1% formic acid. Brain homogenization was executed by Precellys Evolution (Bertin) after adding ACN/methanol (1:1)/aq.dest. (3:1) to each brain sample with a volume corresponding to 4 parts of the brain weight, followed by centrifugation for 1 min at 4000 rpm at 4 °C. 5 µl of the supernatant was mixed with 10 nl of internal standard.

in vivo = conditions: mouse, ip
Method: as §1

C57BL/6 J mice = experiment: 5-choice serial-reaction-time task (5-CSRTT), unspecific behavioural effects; assay type: in vivo
Method: Training was performed in 16 standard mouse Bussey-Saksida touchscreen chambers (model #80614, Campden Instruments Ltd., UK), previously described in detail. In short, each trapezoidal operant chamber was placed in a sound- and light- attenuating box individually equipped with a house light, a reward magazine with light, a liquid reward dispenser, a sound generator, a perforated stainless steel floor, and a touchscreen placed at the wide end of the chamber and covered permanently by a black acrylic glass 5-hole mask. The reward magazine, located opposite the touchscreen, was connected to a liquid dispenser delivering strawberry milk (Yazoo®). Infrared break-beam sensors located inside and on the front of the food magazine as well as on the touch-screen walls allowed the detection of reward delivery and the animal’s locomotor activity, respectively. Four individual chambers were connected to one computer for controlling the task flow using the graphical task design software ABET II Touch (model #89505, Campden Instruments Ltd., UK) and the WhiskerServer software (Cambridge University Technical Services Ltd., UK)[27].
Mice were habituated to the chambers for three consecutive 20-min sessions during which the house light and magazine light were permanently on. At the start of each session, 30 µl strawberry milk was delivered. Every 15 s after head entry into the magazine, an additional 30 µl strawberry milk was delivered. Head entry turned the magazine light off.
The 5-CSRTT training protocol, originally designed for rats[28], was similar as that previously described for mice[29]–[31]. The training comprised six stages with 30-min sessions initiated by the illumination of the house and magazine lights and delivery of 20 µl strawberry milk. Collection of the reward switched the magazine light off and started the first trial.
In the first stage, the middle window was permanently illuminated, which was turned off when touched, followed by reward delivery (20 µl) with illumination of the magazine light. Head entry switched off the magazine light. Mice performing 30 trials in a session continued to the next stage. Training sessions in stages 2–6 comprised a maximum of 120 trials. Collection of the reward initiated the inter-trial interval (ITI) followed by the illumination of one pseudo-randomly selected aperture for a fixed stimulus duration (SD). Any touch to the screen during the ITI was classified as a premature response which was not counted as a trial and terminated the current trial. Following stimulus detection, a nose poke to the corresponding aperture within a fixed time interval (limited hold; LH) was required for reward delivery. Premature responses made during the ITI, incorrect responses, and the omission of a response within the LH led to a timeout (TO, house light switched off for 4 s) instead of delivery of reward. Correct, incorrect and omitted responses defined the total number of trials. […] The criteria to pass the last stage and reach baseline performance were to complete >30 correct trials, with ≥80% accuracy and ≤30% omissions. Percentage accuracy was defined as the number of correct trials divided by the sum of correct and incorrect trials. Percentage omissions were calculated in terms of the number of completed trials. Premature responding was calculated as a percentage of completed trials. Perseveration was calculated as the number of additional responses made in the same aperture following a correct response. Additionally, the correct-response latency (time from stimulus presentation to correct response) and reward latency (time from correct response to reward collection) were measured across all trials.
Either one or up to three days before, as well as one day after the task challenge, mice were trained at baseline conditions to check for any unexpected changes in task performance (e.g. by long lasting drug- or challenge-induced effects). […]

hM4Di = molecular target: T1, hM4Di (Homo sapiens, UniProt P08173, A203G/Y113C); experiment: FLIPR Ca2+ oscillation assay in primary rat neuronal cultures transduced with hM4Di; assay type: cell-based; conditions: reduction of Ca2+ oscillation frequency, hM4Di-transduced rat primary neurons, Hill fit; read-out: half maximal effective concentration (EC50) at hM4Di
T1 construct: expressed in transfected cells; host or cells: primary cortical neurons of embryonic (E18) Sprague-Dawley rats, AAV-transduced
T1 sequence (P08173 1-479 Y113C/A203G): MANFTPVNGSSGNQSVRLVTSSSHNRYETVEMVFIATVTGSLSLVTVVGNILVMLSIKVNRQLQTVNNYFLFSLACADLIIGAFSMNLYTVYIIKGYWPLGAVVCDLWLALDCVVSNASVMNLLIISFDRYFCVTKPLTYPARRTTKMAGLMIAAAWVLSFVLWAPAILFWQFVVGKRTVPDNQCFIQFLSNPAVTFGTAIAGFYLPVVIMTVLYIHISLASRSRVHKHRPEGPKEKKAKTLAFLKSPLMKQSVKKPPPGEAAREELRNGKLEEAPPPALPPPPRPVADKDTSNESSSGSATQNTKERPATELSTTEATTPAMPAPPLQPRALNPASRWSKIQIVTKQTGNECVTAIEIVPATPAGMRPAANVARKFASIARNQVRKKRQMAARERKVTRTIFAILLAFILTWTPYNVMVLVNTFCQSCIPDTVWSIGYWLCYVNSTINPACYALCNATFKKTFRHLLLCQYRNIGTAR
Method: Briefly, cortices were dissected from embryonic brains, meninges were removed, and cortices transferred into ice-cold dissociation buffer (2 mM kynurenic acid, 10 mM HEPES, 20 mM MgCl2 (Fluka, Germany) and 33.4 mM Glucose in Hank’s Balanced Salt Solution (HBSS), pH 7.4 (Gibco, Thermo Fischer Scientific, Massachusetts, USA). Cortices were then dissociated in 20 units/ml papain solution (5.5 mM L- Cysteine hydrochloride, 1.1 mM ethylenediamine tetra-acetic acid [EDTA], 0.067 mM 2-Mercaptoethanol in Minimum Essential Medium [MEM]) for 15 min at 37 °C. Cortices were washed twice by adding 20 ml plating medium (1:50 foetal calve serum, 1:100 penicillin/streptomycin and 1:100 GlutaMax in MEM) followed by cell filtration using a 70 µm cell strainer (Corning, model #352350, Merck, Germany) to obtain a single-cell suspension. Dissociated cells were re-suspended in serum-free Neurobasal medium with Glutamax and B27 supplement (Gibco) and plated on PDL-coated 96 MTPs (Corning #356640). Virus (ssAAV-1/2-hSyn1-hM4D[Gi]_mCherry-WPRE-hGHp[A]) transduction was performed immediately after plating. Cells were maintained at 37 °C (5% CO2 and 10% O2) in a humidified incubator. A half feed medium change was done on DIV8. Final assay conditions used for evaluating activity of compounds were 0.95 × 10^5 cells/cm^2, transduced with 10.000 multiplicity of infection and measured on DIV9.
Medium was removed and cells were incubated in assay buffer (HBSS, Gibco, 10 mM HEPES, pH 7.4) containing 4 µM Fluo-4AM (Thermo Fischer Scientific) and 0.1% Pluronic F-127 (Thermo Fischer Scientific #P3000MP) for 1 h at room temperature in the dark. Loading buffer was then replaced with assay buffer. After 10 min, assay plates were measured in the FLIPR tetra (Molecular Devices, California, USA) using green fluorescence filter settings (excitation 470–495 nm, emission 515–575 nm). Fluorescence signals were recorded at 1 s intervals (0.4 s exposure time). Compound addition was automated in a single addition protocol. Tested compounds (concentrations:0.3 nM–1 µM; retigabine at 30 µM) were added after recording a baseline response for 5 min followed by another 5 min for recording compound effects on Ca^2+ oscillations. Each compound dose was repeated on three individual plates in duplicates.
Time-series raw fluorescence traces recorded from the FLIPR assay were analysed by detecting Ca^2+ peaks based on a fixed amplitude threshold[19]. The change in oscillation frequency was determined by counting the number of peaks in a defined time interval (5 min) before and after addition of the tested compound and calculating the Ca^2+ oscillations frequency from their number. […] For visualisation, all data were transferred to GraphPad Prism 7 (Graphpad Software, Inc., CA, USA).

D2 dopamine receptor = molecular target: T2, D2 dopamine receptor (Homo sapiens, UniProt P14416); experiment: Off-target radioligand binding; conditions: 10 μM compound
T2 construct: expressed in transfected cells; host or cells: HEK-293 or CHO

5-HT3 serotonin receptor = 5-HT3 serotonin receptor (Homo sapiens, UniProt P46098); experiment: Off-target radioligand binding; conditions: 10 μM compound
[2] = test system: 5-HT1B serotonin receptor; experiment: Off-target radioligand binding; set-up: species or system human; conditions: 10 μM compound
α1A adrenoreceptor = molecular target: T3, α1A adrenoreceptor (Homo sapiens, UniProt P35348); experiment: Off-target radioligand binding; conditions: 10 μM compound
T3 construct: expressed in transfected cells; host or cells: HEK-293 or CHO

μ opioid receptor = molecular target: T4, μ opioid receptor (Homo sapiens, UniProt P35372); experiment: Off-target radioligand binding; conditions: 10 μM compound
T4 construct: expressed in transfected cells; host or cells: HEK-293 or CHO

[3] = molecular target: T5, 5-HT1A serotonin receptor (Homo sapiens, UniProt P08908); experiment: Off-target radioligand binding; conditions: 10 μM compound
T5 construct: expressed in transfected cells; host or cells: HEK-293 or CHO

D1 dopamine receptor = molecular target: T6, D1 dopamine receptor (Homo sapiens, UniProt P21728); experiment: Off-target radioligand binding; conditions: 10 μM compound
T6 construct: expressed in transfected cells; host or cells: HEK-293 or CHO

M1 muscarinic receptor = molecular target: T7, M1 muscarinic receptor (Homo sapiens, UniProt P11229); experiment: Off-target radioligand binding; conditions: 10 μM compound
T7 construct: expressed in transfected cells; host or cells: HEK-293 or CHO

M2 muscarinic receptor = molecular target: T8, M2 muscarinic receptor (Homo sapiens, UniProt P08172); experiment: Off-target radioligand binding; conditions: 10 μM compound
T8 construct: expressed in transfected cells; host or cells: HEK-293 or CHO

PDE3A = PDE3A (Homo sapiens, UniProt Q14432); experiment: Off-target enzyme assay; assay type: biochemical; conditions: 10 μM compound, not shown
δ opioid receptor = molecular target: T9, δ opioid receptor (Homo sapiens, UniProt P41143); experiment: Off-target radioligand binding; conditions: 10 μM compound
T9 construct: expressed in transfected cells; host or cells: HEK-293 or CHO

H1 histamine receptor = molecular target: T10, H1 histamine receptor (Homo sapiens, UniProt P35367); experiment: Off-target radioligand binding; conditions: 10 μM compound
T10 construct: expressed in transfected cells; host or cells: HEK-293 or CHO

hM3Dq = test system: hM3Dq; set-up: method as in PMID 25587888; conditions: FLIPR assay; cited from earlier work
Lck kinase = Lck kinase (Homo sapiens, UniProt P06239); experiment: Off-target enzyme assay; assay type: biochemical; conditions: 10 μM compound, not shown
[4] = molecular target: T11, 5-HT2A serotonin receptor (Homo sapiens, UniProt P28223); experiment: Off-target radioligand binding; conditions: 10 μM compound
T11 construct: expressed in transfected cells; host or cells: HEK-293 or CHO
Method: Receptors and transporters of interest were overexpressed in either human recombinant human embryonic kidney (HEK)-293 or Chinese hamster ovary (CHO) cells. […] Results are expressed as percent inhibition of control-specific binding of the radioactively labelled ligand specific for the respective target. For enzyme inhibition, the effect was calculated as a percent inhibition of control enzyme activity. […] All presented values are the mean of two experiments.

AChE = AChE (Homo sapiens, UniProt P22303); conditions: 10 μM compound, not shown
COX2 = COX2 (Homo sapiens, UniProt P35354); experiment: Off-target enzyme assay; assay type: biochemical; conditions: 10 μM compound, not shown
M3 muscarinic receptor = molecular target: T12, M3 muscarinic receptor (Homo sapiens, UniProt P20309); experiment: Off-target radioligand binding; conditions: 10 μM compound
T12 construct: expressed in transfected cells; host or cells: HEK-293 or CHO

COX1 = COX1 (Homo sapiens, UniProt P23219); experiment: Off-target enzyme assay; assay type: biochemical; conditions: 10 μM compound, not shown
κ opioid receptor = experiment: Off-target radioligand binding; set-up: species or system human; conditions: 10 μM compound
[5] = molecular target: T13, 5-HT2B serotonin receptor (Homo sapiens, UniProt P41595); experiment: Off-target radioligand binding; conditions: 10 μM compound
T13 construct: expressed in transfected cells; host or cells: HEK-293 or CHO

PDE4D2 = PDE4D2 (Homo sapiens, UniProt Q08499); experiment: Off-target enzyme assay; assay type: biochemical; conditions: 10 μM compound, not shown
[6] = brain (cortical tissue), 3.5 mg/kg
[7] = mice, 15 min after 3.0 mg/kg Cmpd-21 i.p.
[8] = mice, 60 min after 3.0 mg/kg Cmpd-21 i.p.

COX1, sequence (P23219 24-599): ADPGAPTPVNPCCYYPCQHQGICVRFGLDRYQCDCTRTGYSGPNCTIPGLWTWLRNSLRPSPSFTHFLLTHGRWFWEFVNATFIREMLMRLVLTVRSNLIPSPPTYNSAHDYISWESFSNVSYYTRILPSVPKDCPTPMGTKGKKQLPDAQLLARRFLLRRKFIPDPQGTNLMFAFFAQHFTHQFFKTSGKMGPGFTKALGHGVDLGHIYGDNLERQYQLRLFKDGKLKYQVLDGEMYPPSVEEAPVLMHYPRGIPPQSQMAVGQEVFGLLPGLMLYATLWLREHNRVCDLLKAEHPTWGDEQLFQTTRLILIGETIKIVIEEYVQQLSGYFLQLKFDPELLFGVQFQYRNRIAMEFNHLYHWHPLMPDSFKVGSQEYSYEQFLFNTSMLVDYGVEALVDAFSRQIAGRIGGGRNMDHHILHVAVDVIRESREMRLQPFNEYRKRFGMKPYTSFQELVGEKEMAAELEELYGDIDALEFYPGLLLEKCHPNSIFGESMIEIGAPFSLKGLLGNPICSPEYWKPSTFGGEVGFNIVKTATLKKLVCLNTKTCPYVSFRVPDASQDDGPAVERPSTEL
T12 sequence (P20309 whole entry): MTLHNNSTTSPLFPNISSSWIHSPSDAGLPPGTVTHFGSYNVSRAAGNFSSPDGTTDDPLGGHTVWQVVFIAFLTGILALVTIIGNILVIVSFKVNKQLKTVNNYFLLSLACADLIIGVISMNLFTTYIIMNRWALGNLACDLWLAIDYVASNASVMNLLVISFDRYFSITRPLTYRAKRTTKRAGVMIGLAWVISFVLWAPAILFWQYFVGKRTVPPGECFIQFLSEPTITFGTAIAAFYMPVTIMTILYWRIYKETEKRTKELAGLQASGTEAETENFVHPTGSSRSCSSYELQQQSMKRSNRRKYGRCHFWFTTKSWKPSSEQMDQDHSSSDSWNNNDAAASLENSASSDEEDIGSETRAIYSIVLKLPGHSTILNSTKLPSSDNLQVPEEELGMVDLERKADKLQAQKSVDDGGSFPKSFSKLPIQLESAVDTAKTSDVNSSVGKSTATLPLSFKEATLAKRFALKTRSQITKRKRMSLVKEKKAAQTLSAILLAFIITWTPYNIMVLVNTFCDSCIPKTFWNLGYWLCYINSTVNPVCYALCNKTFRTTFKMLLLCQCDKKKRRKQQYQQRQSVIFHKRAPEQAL
5-HT3 serotonin receptor, sequence (P46098 24-478): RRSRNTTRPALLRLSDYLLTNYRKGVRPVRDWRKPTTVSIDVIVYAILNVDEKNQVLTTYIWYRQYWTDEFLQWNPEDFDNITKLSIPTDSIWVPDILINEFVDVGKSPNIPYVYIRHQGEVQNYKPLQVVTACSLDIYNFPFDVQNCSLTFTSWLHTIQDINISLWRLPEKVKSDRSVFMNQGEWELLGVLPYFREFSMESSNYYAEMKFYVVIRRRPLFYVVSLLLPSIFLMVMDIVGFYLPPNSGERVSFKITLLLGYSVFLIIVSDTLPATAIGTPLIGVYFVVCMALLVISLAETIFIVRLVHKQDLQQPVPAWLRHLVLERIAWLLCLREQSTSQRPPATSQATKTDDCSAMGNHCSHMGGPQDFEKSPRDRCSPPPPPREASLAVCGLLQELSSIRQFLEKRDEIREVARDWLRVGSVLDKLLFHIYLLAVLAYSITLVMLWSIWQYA
PDE4D2, sequence (Q08499 303-809): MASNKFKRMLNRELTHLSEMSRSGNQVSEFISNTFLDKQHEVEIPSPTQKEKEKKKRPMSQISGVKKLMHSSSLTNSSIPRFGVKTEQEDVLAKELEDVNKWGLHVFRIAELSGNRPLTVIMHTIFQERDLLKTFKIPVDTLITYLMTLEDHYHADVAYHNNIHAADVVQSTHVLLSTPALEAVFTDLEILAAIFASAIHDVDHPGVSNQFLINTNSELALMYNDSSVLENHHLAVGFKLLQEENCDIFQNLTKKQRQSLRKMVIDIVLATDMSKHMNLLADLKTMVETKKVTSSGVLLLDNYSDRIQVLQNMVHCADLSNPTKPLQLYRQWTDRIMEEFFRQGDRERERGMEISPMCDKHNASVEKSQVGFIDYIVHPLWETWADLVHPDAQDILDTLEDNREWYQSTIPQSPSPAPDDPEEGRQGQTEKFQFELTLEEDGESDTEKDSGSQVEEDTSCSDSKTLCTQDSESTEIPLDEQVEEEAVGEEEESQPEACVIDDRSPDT
T7 sequence (P11229 whole entry): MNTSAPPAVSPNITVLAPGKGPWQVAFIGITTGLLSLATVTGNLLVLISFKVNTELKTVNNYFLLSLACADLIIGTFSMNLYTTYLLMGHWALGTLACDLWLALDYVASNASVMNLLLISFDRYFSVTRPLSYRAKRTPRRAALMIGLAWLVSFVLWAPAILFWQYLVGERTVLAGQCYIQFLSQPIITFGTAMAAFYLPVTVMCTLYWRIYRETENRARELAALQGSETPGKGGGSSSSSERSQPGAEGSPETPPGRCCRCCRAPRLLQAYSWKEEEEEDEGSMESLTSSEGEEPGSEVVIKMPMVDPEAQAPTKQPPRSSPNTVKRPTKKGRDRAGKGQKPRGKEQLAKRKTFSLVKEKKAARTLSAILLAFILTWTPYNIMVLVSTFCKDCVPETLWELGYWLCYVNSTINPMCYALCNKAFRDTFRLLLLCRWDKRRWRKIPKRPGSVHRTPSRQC
T5 sequence (P08908 whole entry): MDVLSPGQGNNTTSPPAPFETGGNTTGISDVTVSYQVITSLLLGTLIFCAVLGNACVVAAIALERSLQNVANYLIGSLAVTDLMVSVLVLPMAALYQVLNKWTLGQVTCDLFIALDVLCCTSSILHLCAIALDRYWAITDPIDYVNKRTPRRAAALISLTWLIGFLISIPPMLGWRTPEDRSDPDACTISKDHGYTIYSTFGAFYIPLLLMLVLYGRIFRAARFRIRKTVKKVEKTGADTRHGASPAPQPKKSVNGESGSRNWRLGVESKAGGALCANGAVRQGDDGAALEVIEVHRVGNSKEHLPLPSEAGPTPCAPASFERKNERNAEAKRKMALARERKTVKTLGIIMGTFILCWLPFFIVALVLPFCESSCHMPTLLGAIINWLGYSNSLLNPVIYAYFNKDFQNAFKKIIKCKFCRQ
T13 sequence (P41595 whole entry): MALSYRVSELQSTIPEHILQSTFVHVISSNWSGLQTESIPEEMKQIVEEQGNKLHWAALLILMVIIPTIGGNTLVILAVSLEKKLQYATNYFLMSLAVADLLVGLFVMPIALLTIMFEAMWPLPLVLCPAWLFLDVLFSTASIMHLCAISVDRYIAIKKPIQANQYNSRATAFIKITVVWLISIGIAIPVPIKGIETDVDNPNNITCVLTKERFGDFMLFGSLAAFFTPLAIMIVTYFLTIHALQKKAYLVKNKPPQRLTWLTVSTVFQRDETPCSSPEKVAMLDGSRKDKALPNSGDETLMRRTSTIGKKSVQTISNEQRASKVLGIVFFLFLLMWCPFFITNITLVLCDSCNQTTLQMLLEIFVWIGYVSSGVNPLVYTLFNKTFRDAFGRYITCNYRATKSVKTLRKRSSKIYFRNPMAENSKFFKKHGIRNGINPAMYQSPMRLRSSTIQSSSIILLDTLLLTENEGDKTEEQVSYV
T2 sequence (P14416 1-414 isoform P14416-2): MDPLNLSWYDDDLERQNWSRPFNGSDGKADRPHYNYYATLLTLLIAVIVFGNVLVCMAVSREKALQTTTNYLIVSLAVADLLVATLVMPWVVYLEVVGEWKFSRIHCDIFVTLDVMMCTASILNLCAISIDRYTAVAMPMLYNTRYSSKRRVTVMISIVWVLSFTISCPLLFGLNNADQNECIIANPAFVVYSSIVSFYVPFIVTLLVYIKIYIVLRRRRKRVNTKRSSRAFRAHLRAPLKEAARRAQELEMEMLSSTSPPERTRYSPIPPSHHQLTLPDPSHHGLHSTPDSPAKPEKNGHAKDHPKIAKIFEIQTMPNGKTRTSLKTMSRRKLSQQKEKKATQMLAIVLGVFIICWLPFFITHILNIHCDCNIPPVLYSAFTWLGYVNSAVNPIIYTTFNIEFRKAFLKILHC
Lck kinase, sequence (P06239 whole entry): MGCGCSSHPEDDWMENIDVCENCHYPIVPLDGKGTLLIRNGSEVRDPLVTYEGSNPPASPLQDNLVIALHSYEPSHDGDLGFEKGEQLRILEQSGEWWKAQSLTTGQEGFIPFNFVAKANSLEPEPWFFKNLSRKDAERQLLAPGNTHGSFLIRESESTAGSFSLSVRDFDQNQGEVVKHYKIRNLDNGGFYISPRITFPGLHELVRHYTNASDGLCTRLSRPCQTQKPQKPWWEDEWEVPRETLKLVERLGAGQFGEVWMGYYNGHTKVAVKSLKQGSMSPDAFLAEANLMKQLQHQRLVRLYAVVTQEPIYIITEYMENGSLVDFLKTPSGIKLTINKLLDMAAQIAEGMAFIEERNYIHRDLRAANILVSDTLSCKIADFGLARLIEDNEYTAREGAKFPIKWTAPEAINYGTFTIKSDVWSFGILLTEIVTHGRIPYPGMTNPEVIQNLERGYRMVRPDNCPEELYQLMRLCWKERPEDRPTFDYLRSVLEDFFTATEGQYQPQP
T10 sequence (P35367 whole entry): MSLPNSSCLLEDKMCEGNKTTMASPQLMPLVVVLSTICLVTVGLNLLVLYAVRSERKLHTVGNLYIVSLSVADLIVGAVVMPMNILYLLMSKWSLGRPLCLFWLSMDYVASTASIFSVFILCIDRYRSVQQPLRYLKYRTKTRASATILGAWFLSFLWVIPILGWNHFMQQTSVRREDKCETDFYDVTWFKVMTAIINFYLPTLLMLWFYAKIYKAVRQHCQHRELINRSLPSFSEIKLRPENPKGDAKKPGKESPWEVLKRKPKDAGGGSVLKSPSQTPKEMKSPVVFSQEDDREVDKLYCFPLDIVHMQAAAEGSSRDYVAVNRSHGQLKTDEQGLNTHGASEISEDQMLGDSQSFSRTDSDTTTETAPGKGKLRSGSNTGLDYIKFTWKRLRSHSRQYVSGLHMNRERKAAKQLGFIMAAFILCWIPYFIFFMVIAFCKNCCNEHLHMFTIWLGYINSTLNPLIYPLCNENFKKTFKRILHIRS

CN1CCN(C2=Nc3cc(Cl)ccc3Nc3ccccc32)CC1 [CLZ, clozapine]
mean CLZ plasma concentration as % of mean CNO plasma concentration ([1]; mice, 15 min after i.p. 3.5 mg/kg CNO): approximately 3.3%
free (CSF) concentration as % of the brain concentration ([1]; mice, after i.p. 1 mg/kg CLZ): approximately 0.1%
concentration in CSF ([1]; mice, all sampling points (15, 30, 60 min) after i.p. 3.5 mg/kg CNO, detection limit): 1 to 2.5 nM
decline within 60 min in plasma and brain tissue ([1]; mice, single injection of CLZ): approximately 2 fold
Kp (in vivo; C57BL/6J, CSF, 1 mg/kg): ~0.01
concentration at 15 min (in vivo; CSF, 1 mg/kg): 1.9 nM
concentration at 15 min (in vivo; [6]): ~427 nM
concentration at 60 min (in vivo; [6]): 406 nM
Kp at 15 min (in vivo; brain, 1 mg/kg): ~6
concentration at 15 min (in vivo; brain, 1 mg/kg): 2060 nM
concentration at 60 min (in vivo; brain, 1 mg/kg): 1020 nM
Tmax (in vivo; plasma, brain and CSF, 1 mg/kg): 15 min
concentration at 15 min (in vivo; plasma, 1 mg/kg): 344 nM
concentration at 60 min (in vivo; plasma, 1 mg/kg): 123 nM
attentional accuracy (C57BL/6 J mice; CLZ 0.1 mg/kg i.p., p = 0.0439): mild decrease
omissions (inattentiveness) (C57BL/6 J mice; CLZ 1 mg/kg i.p., p = 0.0108): mild increase
behavioural changes in 5-CSRTT parameters (C57BL/6 J mice; CLZ 0.1, 0.3 and 1 mg/kg i.p., vs vehicle): did not produce any significant behavioural changes in most 5-CSRTT parameters

c1ccc2c(c1)N=C(N1CCNCC1)c1ccccc1N2 [Cmpd-21, compound 21]
EC50 (hM4Di): 2.95 nM
competitive inhibition of ligand binding (D2 dopamine receptor): > 50%
competitive inhibition of ligand binding (5-HT3 serotonin receptor): > 50%
competitive inhibition of ligand binding [2]: > 50%
mean brain concentration [1, 7]: 722 nM
mean concentration in CSF [1, 7]: 52 nM
mean concentration in plasma [1, 7]: 5833 nM
CSF concentration as % of peak value [1, 8]: 54%
mean brain concentration [1, 8]: 1273 nM
plasma concentration as % of peak value [1, 8]: 57%
time of peak plasma and CSF levels ([1]; mice, after 3.0 mg/kg Cmpd-21 i.p., earliest time point of measurement): 15 min
conversion to CLZ or CNO ([1]; mice, data not shown): did not detect any conversion
competitive inhibition of ligand binding (α1A adrenoreceptor): > 50%
competitive inhibition of ligand binding (μ opioid receptor): > 50%
competitive inhibition of ligand binding [3]: > 50%
competitive inhibition of ligand binding (D1 dopamine receptor): > 50%
competitive inhibition of ligand binding (M1 muscarinic receptor): > 50%
competitive inhibition of ligand binding (M2 muscarinic receptor): > 50%
inhibition (PDE3A): < 25%
competitive inhibition of ligand binding (δ opioid receptor): > 50%
competitive inhibition of ligand binding (H1 histamine receptor): > 50%
EC50 (hM3Dq): 1.7 nM
inhibition (Lck kinase): < 25%
competitive inhibition of ligand binding [4]: > 50%
inhibition (AChE): < 25%
inhibition (COX2): 60%
competitive inhibition of ligand binding (M3 muscarinic receptor): > 50%
behavioural changes in 5-CSRTT parameters (C57BL/6 J mice; Cmpd-21 0.3, 1 and 3 mg/kg i.p.): did not produce any significant behavioural changes in any 5-CSRTT parameters
inhibition (COX1): < 25%
competitive inhibition of ligand binding (κ opioid receptor): > 50%
competitive inhibition of ligand binding [5]: > 50%
inhibition (PDE4D2): < 25%

Clc1ccc2c(c1)N=C(N1CCNCC1)c1ccccc1N2 [NorCLZ, norclozapine]
detection of metabolite in plasma ([1]; mice, 15, 30, 60 min after i.p. 1 mg/kg CLZ): detectable in all plasma samples
